Article PMC3672506, “A useful EGFR-TK ligand for tumor diagnosis with SPECT: development of radioiodinated 6-(3-morpholinopropoxy)-7-ethoxy-4-(3′-iodophenoxy)quinazoline” (Annals of Nuclear Medicine, 2013)
Where two headings read alike, the source gives them in different places.

Assay type: in vivo
Conditions: normal ddY mice; for Blood radioactivity / Bone radioactivity / Brain radioactivity / Colon radioactivity / Heart radioactivity / Intestine radioactivity / Kidney radioactivity / Liver radioactivity / Lung radioactivity / Muscle radioactivity / Pancreas radioactivity / Skin radioactivity / Spleen radioactivity / Stomach radioactivity / Thyroid radioactivity: i.v.
Method: [^125I]PYK (37 kBq, 74 TBq/mmol) in 0.1 mL saline was injected intravenously into ddY male mice (5 weeks old, 25–30 g, n = 4) via the lateral tail vein. At the desired time (5 min—24 h) interval after administration, the animals were sacrificed by decapitation. Samples of blood and tissues of interest were excised and weighed. Radioactivity was measured using a well-type NaI(Tl) scintillation gamma counter. The results were expressed in terms of percentage of injected dose per gram of blood or tissue.
[^125I]PYK was transported well into various organs and disappeared slowly from the blood. In the liver highest uptake and rapid clearance were observed. The lungs, kidney, heart, pancreas, spleen, and brain uptakes were similar pattern to that of the liver. Furthermore, the increase in [^125I]PYK uptake in the stomach and thyroid as deiodination parameters were not found.

In the case of `CCOc1cc2ncnc(Oc3cccc([125I])c3)c2cc1OCCCN1CCOCC1` [[^125I]PYK], the “in vivo stability (deiodination: stomach and thyroid uptake)” value is reported as “good stability”, the Blood radioactivity (5 min after injection) is reported as 0.98 ± 0.61 % injected dose per gram tissu and the Bone radioactivity (5 min after injection) is reported as 1.13 ± 0.28 % injected dose per gram tissu. For the same molecule, the Brain radioactivity (5 min after injection) was 2.07 ± 0.07 % injected dose per gram tissu, the Colon radioactivity (5 min after injection) was 1.89 ± 0.37 % injected dose per gram tissu and the Heart radioactivity (5 min after injection) was 3.47 ± 0.29 % injected dose per gram tissu. The Intestine radioactivity (5 min after injection) was 4.57 ± 0.63 % injected dose per gram tissu, the Kidney radioactivity (5 min after injection) was 15.1 ± 1.38 % injected dose per gram tissu and the Liver radioactivity (5 min after injection) was 10.5 ± 0.92 % injected dose per gram tissu. For the same molecule, the Lung radioactivity (5 min after injection) was 11.89 ± 2.86 % injected dose per gram tissu, the Muscle radioactivity (5 min after injection) was 1.78 ± 0.13 % injected dose per gram tissu and the Pancreas radioactivity (5 min after injection) was 6.95 ± 0.49 % injected dose per gram tissu. For the same molecule, the Skin radioactivity (5 min after injection) was 0.68 ± 0.13 % injected dose per gram tissu, the Spleen radioactivity (5 min after injection) was 4.42 ± 0.95 % injected dose per gram tissu and the Stomach radioactivity (5 min after injection) was 2.41 ± 0.59 % injected dose per gram tissu. The Thyroid radioactivity (5 min after injection) was 0.05 ± 0.04 % injected dose per organ, the Blood radioactivity (15 min after injection) was 1.05 ± 0.08 % injected dose per gram tissu and the Bone radioactivity (15 min after injection) was 1.36 ± 0.39 % injected dose per gram tissu. The Brain radioactivity (15 min after injection) was 3.15 ± 1.22 % injected dose per gram tissu, the Colon radioactivity (15 min after injection) was 2.21 ± 0.48 % injected dose per gram tissu and the Heart radioactivity (15 min after injection) was 1.76 ± 0.89 % injected dose per gram tissu. For the same molecule, the Intestine radioactivity (15 min after injection) was 5.57 ± 1.69 % injected dose per gram tissu, the Kidney radioactivity (15 min after injection) was 15.6 ± 1.33 % injected dose per gram tissu and the Liver radioactivity (15 min after injection) was 13.9 ± 2.47 % injected dose per gram tissu. For the same molecule, the Lung radioactivity (15 min after injection) was 6.85 ± 1.99 % injected dose per gram tissu, the Muscle radioactivity (15 min after injection) was 0.97 ± 0.15 % injected dose per gram tissu and the Pancreas radioactivity (15 min after injection) was 5.52 ± 0.50 % injected dose per gram tissu. For the same molecule, the Skin radioactivity (15 min after injection) was 0.91 ± 0.13 % injected dose per gram tissu, the Spleen radioactivity (15 min after injection) was 4.23 ± 0.90 % injected dose per gram tissu and the Stomach radioactivity (15 min after injection) was 3.03 ± 0.36 % injected dose per gram tissu. For the same molecule, the Thyroid radioactivity (15 min after injection) was 0.05 ± 0.03 % injected dose per organ, the Blood radioactivity (30 min after injection) was 0.80 ± 0.07 % injected dose per gram tissu and the Bone radioactivity (30 min after injection) was 0.60 ± 0.19 % injected dose per gram tissu. The Brain radioactivity (30 min after injection) was 0.82 ± 0.33 % injected dose per gram tissu, the Colon radioactivity (30 min after injection) was 2.33 ± 0.40 % injected dose per gram tissu and the Heart radioactivity (30 min after injection) was 1.43 ± 0.16 % injected dose per gram tissu. For the same molecule, the Intestine radioactivity (30 min after injection) was 9.11 ± 0.57 % injected dose per gram tissu, the Kidney radioactivity (30 min after injection) was 12.6 ± 2.36 % injected dose per gram tissu and the Liver radioactivity (30 min after injection) was 13.3 ± 1.83 % injected dose per gram tissu. The Lung radioactivity (30 min after injection) was 4.40 ± 1.60 % injected dose per gram tissu, the Muscle radioactivity (30 min after injection) was 1.02 ± 0.53 % injected dose per gram tissu and the Pancreas radioactivity (30 min after injection) was 3.42 ± 0.33 % injected dose per gram tissu. For the same molecule, the Skin radioactivity (30 min after injection) was 1.02 ± 0.08 % injected dose per gram tissu, the Spleen radioactivity (30 min after injection) was 3.70 ± 1.24 % injected dose per gram tissu and the Stomach radioactivity (30 min after injection) was 3.41 ± 0.37 % injected dose per gram tissu. The Thyroid radioactivity (30 min after injection) was 0.01 ± 0.01 % injected dose per organ, the Blood radioactivity (1 h after injection) was 0.83 ± 0.16 % injected dose per gram tissu and the Bone radioactivity (1 h after injection) was 1.81 ± 2.40 % injected dose per gram tissu. For the same molecule, the Brain radioactivity (1 h after injection) was 0.47 ± 0.29 % injected dose per gram tissu, the Colon radioactivity (1 h after injection) was 3.30 ± 0.10 % injected dose per gram tissu and the Heart radioactivity (1 h after injection) was 1.33 ± 0.23 % injected dose per gram tissu. The Intestine radioactivity (1 h after injection) was 15.84 ± 2.63 % injected dose per gram tissu, the Kidney radioactivity (1 h after injection) was 7.94 ± 0.37 % injected dose per gram tissu and the Liver radioactivity (1 h after injection) was 12.3 ± 2.45 % injected dose per gram tissu. For the same molecule, the Lung radioactivity (1 h after injection) was 3.42 ± 0.83 % injected dose per gram tissu, the Muscle radioactivity (1 h after injection) was 0.65 ± 0.04 % injected dose per gram tissu and the Pancreas radioactivity (1 h after injection) was 2.47 ± 0.43 % injected dose per gram tissu. For the same molecule, the Skin radioactivity (1 h after injection) was 0.99 ± 0.06 % injected dose per gram tissu, the Spleen radioactivity (1 h after injection) was 2.44 ± 0.35 % injected dose per gram tissu and the Stomach radioactivity (1 h after injection) was 4.33 ± 0.76 % injected dose per gram tissu. The Thyroid radioactivity (1 h after injection) was 0.03 ± 0.01 % injected dose per organ, the Blood radioactivity (3 h after injection) was 0.50 ± 0.13 % injected dose per gram tissu and the Bone radioactivity (3 h after injection) was 0.25 ± 0.16 % injected dose per gram tissu. For the same molecule, the Brain radioactivity (3 h after injection) was 0.27 ± 0.05 % injected dose per gram tissu, the Colon radioactivity (3 h after injection) was 21.14 ± 5.62 % injected dose per gram tissu and the Heart radioactivity (3 h after injection) was 0.64 ± 0.25 % injected dose per gram tissu. The Intestine radioactivity (3 h after injection) was 14.82 ± 7.80 % injected dose per gram tissu, the Kidney radioactivity (3 h after injection) was 13.80 ± 9.25 % injected dose per gram tissu and the Liver radioactivity (3 h after injection) was 10.94 ± 7.67 % injected dose per gram tissu. For the same molecule, the Lung radioactivity (3 h after injection) was 1.75 ± 0.18 % injected dose per gram tissu, the Muscle radioactivity (3 h after injection) was 1.00 ± 1.27 % injected dose per gram tissu and the Pancreas radioactivity (3 h after injection) was 2.18 ± 0.92 % injected dose per gram tissu. For the same molecule, the Skin radioactivity (3 h after injection) was 0.47 ± 0.46 % injected dose per gram tissu, the Spleen radioactivity (3 h after injection) was 0.99 ± 0.56 % injected dose per gram tissu and the Stomach radioactivity (3 h after injection) was 0.59 ± 0.23 % injected dose per gram tissu. For the same molecule, the Thyroid radioactivity (3 h after injection) was 0.05 ± 0.04 % injected dose per organ, the Blood radioactivity (6 h after injection) was 0.29 ± 0.03 % injected dose per gram tissu and the Bone radioactivity (6 h after injection) was 0.23 ± 0.02 % injected dose per gram tissu. The Brain radioactivity (6 h after injection) was 0.11 ± 0.03 % injected dose per gram tissu, the Colon radioactivity (6 h after injection) was 22.10 ± 7.54 % injected dose per gram tissu and the Heart radioactivity (6 h after injection) was 0.63 ± 0.21 % injected dose per gram tissu. The Intestine radioactivity (6 h after injection) was 8.53 ± 1.84 % injected dose per gram tissu, the Kidney radioactivity (6 h after injection) was 3.58 ± 0.52 % injected dose per gram tissu and the Liver radioactivity (6 h after injection) was 4.70 ± 0.36 % injected dose per gram tissu. For the same molecule, the Lung radioactivity (6 h after injection) was 1.77 ± 0.22 % injected dose per gram tissu, the Muscle radioactivity (6 h after injection) was 0.25 ± 0.04 % injected dose per gram tissu and the Pancreas radioactivity (6 h after injection) was 1.53 ± 0.38 % injected dose per gram tissu. The Skin radioactivity (6 h after injection) was 0.75 ± 0.46 % injected dose per gram tissu, the Spleen radioactivity (6 h after injection) was 1.08 ± 0.25 % injected dose per gram tissu and the Stomach radioactivity (6 h after injection) was 0.73 ± 0.60 % injected dose per gram tissu. The Thyroid radioactivity (6 h after injection) was 0.03 ± 0.02 % injected dose per organ, the Blood radioactivity (24 h after injection) was 0.08 ± 0.04 % injected dose per gram tissu and the Bone radioactivity (24 h after injection) was 0.04 ± 0.02 % injected dose per gram tissu. The Brain radioactivity (24 h after injection) was 0.02 ± 0.06 % injected dose per gram tissu, the Colon radioactivity (24 h after injection) was 15.91 ± 6.59 % injected dose per gram tissu and the Heart radioactivity (24 h after injection) was 0.22 ± 0.04 % injected dose per gram tissu. The Intestine radioactivity (24 h after injection) was 3.76 ± 1.38 % injected dose per gram tissu, the Kidney radioactivity (24 h after injection) was 0.62 ± 0.10 % injected dose per gram tissu and the Liver radioactivity (24 h after injection) was 0.52 ± 0.10 % injected dose per gram tissu. The Lung radioactivity (24 h after injection) was 0.38 ± 0.09 % injected dose per gram tissu, the Muscle radioactivity (24 h after injection) was 0.03 ± 0.01 % injected dose per gram tissu and the Pancreas radioactivity (24 h after injection) was 0.35 ± 0.05 % injected dose per gram tissu. For the same molecule, the Skin radioactivity (24 h after injection) was 0.17 ± 0.11 % injected dose per gram tissu, the Spleen radioactivity (24 h after injection) was 0.24 ± 0.02 % injected dose per gram tissu and the Stomach radioactivity (24 h after injection) was 0.16 ± 0.04 % injected dose per gram tissu. The Thyroid radioactivity (24 h after injection) was 0.01 ± 0.00 % injected dose per organ.
